# Measured values published in PubChem BioAssay (NCI).
#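 Dose response: 5 concentrations. Exposure: 48 h. Format: 96-well plates. Endpoint: linear interpolation; highest concentration if not reached. GI50 = concentration required for 50% inhibition of growth. TGI: concentration producing complete growth inhibition.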
# Experiments:
# Assay in all cases: growth of human tumour cells (NCI), 48 h
# MDA-MB-468 breast = test system: MDA-MB-468 breast
# HCT-15 colon = test system: HCT-15 colon
# HOP-92 NSCLC = test system: HOP-92 NSCLC
# M14 melanoma = test system: M14 melanoma
# MOLT-4 leukemia = test system: MOLT-4 leukemia
# HT29 colon = test system: HT29 colon
# OVCAR-3 ovarian = test system: OVCAR-3 ovarian
# COLO 205 colon = test system: COLO 205 colon
# SF-539 CNS = test system: SF-539 CNS
# A549 NSCLC = test system: A549 NSCLC
# NCI-H460 lung = test system: NCI-H460 lung
# NCI-H226 lung = test system: NCI-H226 lung
# NCI-H522 lung = test system: NCI-H522 lung
# SK-MEL-2 melanoma = test system: SK-MEL-2 melanoma
# SK-MEL-28 melanoma = test system: SK-MEL-28 melanoma
# MDA-MB-435 = test system: MDA-MB-435
# A498 renal = test system: A498 renal
# ACHN renal = test system: ACHN renal
# LOX IMVI melanoma = test system: LOX IMVI melanoma
# MDA-MB-231 breast = test system: MDA-MB-231 breast
# RXF 393 renal = test system: RXF 393 renal
# IGROV1 ovarian = test system: IGROV1 ovarian
# DU-145 prostate = test system: DU-145 prostate
# SK-MEL-5 melanoma = test system: SK-MEL-5 melanoma
# T-47D breast = test system: T-47D breast
# HOP-62 NSCLC = test system: HOP-62 NSCLC
# RPMI-8226 leukemia = test system: RPMI-8226 leukemia
# BT-549 breast = test system: BT-549 breast
# OVCAR-5 ovarian = test system: OVCAR-5 ovarian
# OVCAR-8 ovarian = test system: OVCAR-8 ovarian
# UO-31 renal = test system: UO-31 renal
# HL-60(TB) leukemia = test system: HL-60(TB) leukemia
# TK-10 renal = test system: TK-10 renal
# SF-268 CNS = test system: SF-268 CNS
# U251 CNS = test system: U251 CNS
# SNB-75 CNS = test system: SNB-75 CNS
# MCF7 breast = test system: MCF7 breast
# KM12 colon = test system: KM12 colon
# CAKI-1 renal = test system: CAKI-1 renal
# K-562 leukemia = test system: K-562 leukemia
# HS 578T breast = test system: HS 578T breast
# EKVX NSCLC = test system: EKVX NSCLC
# SNB-19 CNS = test system: SNB-19 CNS
# PC-3 prostate = test system: PC-3 prostate
# SF-295 CNS = test system: SF-295 CNS
# 786-0 renal = test system: 786-0 renal
# MALME-3M melanoma = test system: MALME-3M melanoma
# HCT-116 colon = test system: HCT-116 colon
# OVCAR-4 ovarian = test system: OVCAR-4 ovarian
# SN12C renal = test system: SN12C renal
# SR leukemia = test system: SR leukemia
# CCRF-CEM leukemia = test system: CCRF-CEM leukemia
# NCI-H23 lung = test system: NCI-H23 lung
# HCC-2998 colon = test system: HCC-2998 colon
compound,measurement,setting,value
O=C(NC(Cc1ccccc1)C(=O)CCl)OCc1ccccc1 (stereo unspecified),GI50,MDA-MB-468 breast,3.69 µM
same,TGI,MDA-MB-468 breast,15.4 µM
CCN(CC)CCNC(=O)C(Cl)=C1C(Cl)=C(Cl)C(Cl)=C1Cl,GI50,MDA-MB-468 breast,2.08 µM
same,TGI,MDA-MB-468 breast,7.63 µM
C=C(C)[C@@H]1CC[C@]2(C(=O)N3CCN(C)CC3)CC[C@]3(C)[C@H](CC[C@@H]4[C@@]5(C)CC[C@H](O)C(C)(C)[C@@H]5CC[C@]43C)[C@@H]12,GI50,MDA-MB-468 breast,1.82 µM
same,TGI,MDA-MB-468 breast,3.63 µM
Cc1ccc(S(=O)(=O)NCCCNc2nc(Nc3ccc(N4CCN(C)CC4)cc3)nc3ccsc23)cc1,GI50,MDA-MB-468 breast,7.43 µM
same,TGI,MDA-MB-468 breast,20.6 µM
COc1cccc(/C=C2\CCc3ccccc3C2=O)c1,GI50,MDA-MB-468 breast,12.6 µM
same,TGI,MDA-MB-468 breast,29.3 µM
COC(=O)C[Se]C(=O)Cc1c(C)n(C(=O)c2ccc(Cl)cc2)c2ccc(OC)cc12,GI50,MDA-MB-468 breast,1.47 µM
same,TGI,MDA-MB-468 breast,4 µM
O=C1Nc2c(ccc(Cl)c2Cl)/C1=C\c1cc(C(F)(F)F)cc(C(F)(F)F)c1,GI50,MDA-MB-468 breast,1.51 µM
same,TGI,MDA-MB-468 breast,5.6 µM
Cn1cc(-c2ccc3nnc(C(F)(F)c4ccc5ncccc5c4)n3n2)cn1,GI50,MDA-MB-468 breast,22.5 µM
same,TGI,MDA-MB-468 breast,> 100 µM
Nc1nc(Cl)nc2c1ncn2C1OC(CO)C(O)C1O (stereo unspecified),GI50,MDA-MB-468 breast,> 100 µM
same,TGI,MDA-MB-468 breast,> 100 µM
COC[C@@H](CC(C)C)N=C1NC(=O)/C(=C/c2ccc3ncoc3c2)N1,GI50,HCT-15 colon,2.43 µM
same,TGI,HCT-15 colon,> 100 µM
same,GI50,HOP-92 NSCLC,2.58 µM
same,TGI,HOP-92 NSCLC,9.48 µM
same,GI50,M14 melanoma,5.64 µM
same,TGI,M14 melanoma,> 100 µM
same,GI50,MOLT-4 leukemia,4.27 µM
same,TGI,MOLT-4 leukemia,> 100 µM
same,GI50,HT29 colon,4.3 µM
same,TGI,HT29 colon,24.1 µM
same,GI50,OVCAR-3 ovarian,1.08 µM
same,TGI,OVCAR-3 ovarian,4.69 µM
same,GI50,COLO 205 colon,2.23 µM
same,TGI,COLO 205 colon,8.06 µM
same,GI50,SF-539 CNS,0.618 µM
same,TGI,SF-539 CNS,7.11 µM
same,GI50,A549 NSCLC,2.65 µM
same,TGI,A549 NSCLC,> 100 µM
same,GI50,NCI-H460 lung,2.67 µM
same,TGI,NCI-H460 lung,> 100 µM
same,GI50,NCI-H226 lung,2.18 µM
same,TGI,NCI-H226 lung,> 100 µM
same,GI50,NCI-H522 lung,2.13 µM
same,TGI,NCI-H522 lung,8.52 µM
same,GI50,SK-MEL-2 melanoma,1.93 µM
same,TGI,SK-MEL-2 melanoma,4.36 µM
same,GI50,SK-MEL-28 melanoma,2.66 µM
same,TGI,SK-MEL-28 melanoma,8.79 µM
same,GI50,MDA-MB-435,4.33 µM
same,TGI,MDA-MB-435,> 100 µM
same,GI50,A498 renal,1.34 µM
same,TGI,A498 renal,6.88 µM
same,GI50,ACHN renal,2.89 µM
same,TGI,ACHN renal,> 100 µM
same,GI50,LOX IMVI melanoma,2.87 µM
same,TGI,LOX IMVI melanoma,> 100 µM
same,GI50,MDA-MB-231 breast,5.64 µM
same,TGI,MDA-MB-231 breast,> 100 µM
same,GI50,RXF 393 renal,2.72 µM
same,TGI,RXF 393 renal,9.18 µM
same,GI50,IGROV1 ovarian,2.73 µM
same,TGI,IGROV1 ovarian,> 100 µM
same,GI50,DU-145 prostate,3.74 µM
same,TGI,DU-145 prostate,> 100 µM
same,GI50,SK-MEL-5 melanoma,2.44 µM
same,TGI,SK-MEL-5 melanoma,12 µM
same,GI50,T-47D breast,2.2 µM
same,TGI,T-47D breast,9.96 µM
same,GI50,HOP-62 NSCLC,2.89 µM
same,TGI,HOP-62 NSCLC,> 100 µM
same,GI50,MDA-MB-468 breast,1.35 µM
same,TGI,MDA-MB-468 breast,6.99 µM
same,GI50,RPMI-8226 leukemia,3.19 µM
same,TGI,RPMI-8226 leukemia,> 100 µM
same,GI50,BT-549 breast,2.44 µM
same,TGI,BT-549 breast,11.4 µM
same,GI50,OVCAR-5 ovarian,3.52 µM
same,TGI,OVCAR-5 ovarian,> 100 µM
same,GI50,OVCAR-8 ovarian,2.88 µM
same,TGI,OVCAR-8 ovarian,> 100 µM
same,GI50,UO-31 renal,2.67 µM
same,TGI,UO-31 renal,35.3 µM
same,GI50,HL-60(TB) leukemia,3.48 µM
same,TGI,HL-60(TB) leukemia,23.4 µM
same,GI50,TK-10 renal,3.24 µM
same,TGI,TK-10 renal,> 100 µM
same,GI50,SF-268 CNS,3.65 µM
same,TGI,SF-268 CNS,57.3 µM
same,GI50,U251 CNS,2.72 µM
same,TGI,U251 CNS,> 100 µM
same,GI50,SNB-75 CNS,0.0317 µM
same,TGI,SNB-75 CNS,4.01 µM
same,GI50,MCF7 breast,2.69 µM
same,TGI,MCF7 breast,> 100 µM
same,GI50,KM12 colon,3.39 µM
same,TGI,KM12 colon,> 100 µM
same,GI50,CAKI-1 renal,2.59 µM
same,TGI,CAKI-1 renal,> 100 µM
same,GI50,K-562 leukemia,2.92 µM
same,TGI,K-562 leukemia,> 100 µM
same,GI50,HS 578T breast,2.31 µM
same,TGI,HS 578T breast,9.22 µM
same,GI50,EKVX NSCLC,3.55 µM
same,TGI,EKVX NSCLC,> 100 µM
same,GI50,SNB-19 CNS,1.99 µM
same,TGI,SNB-19 CNS,> 100 µM
same,GI50,PC-3 prostate,5.72 µM
same,TGI,PC-3 prostate,> 100 µM
same,GI50,SF-295 CNS,3.65 µM
same,TGI,SF-295 CNS,> 100 µM
same,GI50,786-0 renal,5.31 µM
same,TGI,786-0 renal,> 100 µM
same,GI50,MALME-3M melanoma,3.06 µM
same,TGI,MALME-3M melanoma,50.5 µM
same,GI50,HCT-116 colon,2.13 µM
same,TGI,HCT-116 colon,> 100 µM
same,GI50,OVCAR-4 ovarian,10.2 µM
same,TGI,OVCAR-4 ovarian,> 100 µM
same,GI50,SN12C renal,3.12 µM
same,TGI,SN12C renal,> 100 µM
same,GI50,SR leukemia,2.87 µM
same,TGI,SR leukemia,> 100 µM
same,GI50,CCRF-CEM leukemia,2.6 µM
same,TGI,CCRF-CEM leukemia,9.93 µM
same,GI50,NCI-H23 lung,2.21 µM
same,TGI,NCI-H23 lung,8.75 µM
same,GI50,HCC-2998 colon,7.43 µM
same,TGI,HCC-2998 colon,> 100 µM
